Measurements from article PMC5190008, “BO-1055, a novel DNA cross-linking agent with remarkable low myelotoxicity shows potent activity in sarcoma models” (Oncotarget, 2016).

Assays:
[1] = system: A673 spheroids; experiment: Spheroid assay in 3D culture (methylcellulose); type: cell-based, human; conditions: A673 spheroids in methylcellulose, scored 14 days after plating
Procedure: A673 cells were seeded on flat bottom non attachment 24 well plates (1000 cells/well) in triplicate using 1.2 % methylcellulose (Dow Chemical, Waterloo, NY) mixed with 20% FCS and specified concentrations of BO-1055 or 4HC as shown in Figure 1D. Samples were incubated at 37°C / 5 % CO2 and colonies were scored 14 days after plating.

[2] = system: patient derived Ewing sarcoma xenografts; experiment: Cyclophosphamide resistant patient-derived Ewing sarcoma xenografts; type: in vivo, NSG mice; conditions: cyclophosphamide MTD 70mg/kg i.p. q2d for 3 doses
Procedure: Patient derived xenografts were established from Ewing sarcoma patients who progressed through first line chemotherapy that included cyclophosphamide, doxorubicin, vincristine, ifosfamide and etoposide (PS3). When these Ewing sarcoma xenografts (n = 10) reached 100mm^3, they were randomized to control and treatment groups.
All mouse experiments were performed at the animal core facility at MSKCC under an approved protocol following the IACUC guidelines. Five to seven-week-old NOD/SCID IL2R gamma null (NSG) mice (bred at the Mouse Genetics Core Facility, MSKCC) were used for in vivo experiments. All mouse experiments were done following the IACUC guidelines at the animal facility at MSKCC. Tumors were induced using 10^6 A673 cells or A204 cells in 0.2ml 1:1 cellular medium, Matrigel matrix (BD Bioscience, Bedford, MA) and injected subcutaneously (s.q) into the right flank. The tumors were measured every 3 d with a caliper, and the diameters were recorded. Tumor volume was calculated by the formula a^2 b/2 where ‘a’ is the smallest and ‘b’ is the largest diameter. When the tumors reached 100mm^3, we randomized mice into control and drug treatment groups. Treatment groups received BO-1055 by tail vein injection at 10mg/kg, 20mg/kg and 30mg/kg q2d x 5 doses for mice bearing A673 xenografts. BO-1055 was given at 30mg/kg q2d x 5 doses for mice bearing A204 xenografts. […]

[3] = system: CCRF-CEM/Taxol cells; design: method as in PMID 21106377; conditions: CCRF-CEM/Taxol ref 6; cited from earlier work

For `O=P1(N(CCCl)CCCl)NC(OO)CCO1` (stereo not drawn) [4-HC, 4-hydroperoxy cyclophosphamide, reference compound], the “concentration giving complete inhibition of spheroids” value [1] was 5 µM.
For `O=P1(N(CCCl)CCCl)NCCCO1` (stereo not drawn) [cyclophosphamide, reference compound], the tumor growth [2] was “not inhibited”.
In the case of `CC(=O)O[C@H]1C(=O)[C@@]2(C)[C@H]([C@H](OC(=O)c3ccccc3)[C@]3(O)C[C@H](OC(=O)[C@H](O)[C@@H](NC(=O)c4ccccc4)c4ccccc4)C(C)=C1C3(C)C)[C@]1(OC(C)=O)CO[C@@H]1C[C@@H]2O` [taxol, reference compound], the “resistance of CCRF-CEM/Taxol cells” value [3] is listed as 330 fold.
